{"source": "paper PMC6383986", "about": "“Fragment-Based Covalent Ligand Screening Enables Rapid Discovery of Inhibitors for the RBR E3 Ubiquitin Ligase HOIP” (Journal of the American Chemical Society, 2019)", "key": {"[1]": {"system": "E1, UbcH5c, UbcH7, HOIL-1L, RNF144A, HHARI, TRIAD3A RBR domains, NEDD4L, E6AP, OTULIN, CYLD-1", "assay": "LC-MS-based enzyme counter screen", "format": "binding", "details": "2-fold excess, positive control", "procedure": "0.1% formic acid in water. The samples were analyzed on a Q Exactive MS (Thermo Fisher) coupled to an Easy-nLC chromatographic system (Thermo Fisher) with a nano ESI source (Thermo Fisher). Each sample (2 µL) was injected and trapped on a C18 Acclaim pepMap 100 enrichment column (75 µm id × 2 cm, 3 µm nanoviper, Thermo Fisher). The samples were transferred to a C18 Acclaim PepMap RSLC analytical column (75 µm id × 15 cm, 2 µm, Thermo Fisher) at 300 nL/min. Mobile phase A (0.1% Formic acid in water, v/v); mobile phase B (0.1% […]\nmin (70-95% B), 56-61 min (95% B). The nanospray ionisation source was operated in the positive mode with spray voltage set at 2 kV, and heated capillary at 250 °C. The Q Exactive was operated in the data dependent mode and the top 15 most intense ions were subjected to HCD fragmentation with normalised collision energy set at 26%. The MS1 scans were performed at a resolution of 70 000 from 400-1600 m/z, automatic gain control (AGC) value 3 e6, maximum injection time 100 ms. […]\nCompounds (1) and (5) were screened against E1, the E2s UbcH5c and UbcH7, the RBR domains of the E3 ligases HOIP, HOIL-1L, RNF144A, HHARI and TRIAD3A, the HECT E3 ligases NEDD4L and E6AP, and the DUBs OTULIN and CYLD-1. […] The samples were analyzed after 0.5 and 24 h incubation. […]"}, "[2]": {"system": "untransfected HEK293T cells", "assay": "CellTiter-Glo Luminescent cell viability assay, untransfected cells", "format": "cell-based", "details": "17 h", "procedure": "Separately, untransfected HEK293T cells were incubated with compounds (1), (11a) and (17) for 17 h, and the cell viability determined using the CellTiter-Glo® Luminescent Cell Viability Assay as described above. Average data from three independent experiments each done in triplicate were plotted as percentage cell viability normalized to DMSO control with GraFit (v.7) against different compound concentrations and fitted using the IC50-4 parameter logistic (Supplementary […]\nSupplementary Figure S14. A-D) Uncropped concentration-response graphs (A and D from Figure 6D) and Western blots from the NF-κB reporter and cell viability assays. HEK293T cells transfected with His6-tagged HOIP, HOIL-1L and SHARPIN (H/H/S) were treated with compounds (11a) and (17) for 17 h and the relative NF-κB activity and cell viability was plotted against compound concentration. E) Cell viability of untransfected HEK293T cells treated with compound (1), (11a) and (17) for 17 h. The observed cell toxicity for compound (1) was in line that previously […]\n(1 picture or pasted object on this page, not shown here)"}}, "data": [{"smiles": "Cc1ccc(S(=O)(=O)/C=C/C#N)cc1", "note": "[Compound 1, BAY 11–7082, reference compound]", "values": [{"measurement": "labeling of counter screen proteins", "setting": "[1]", "result": "rapid and extensive labeling for most proteins"}, {"measurement": "cell viability", "setting": "[2]", "result": "cell toxicity"}]}]}
